Read-outs that look alike come from different tables or passages of the source.
Assays:
[1] = test system: ventricular fibrillation caused by inhalation of chloroform; test: Inhibition of ventricular fibrillation caused by inhalation of chloroform (method of Lawson); type: in vivo; conditions: mice, 10 min before chloroform
Experimental: For example, in mice, the compounds have an inhibiting effect on ventricular fibrillation caused by inhalation of chloroform. The effect of the compounds on ventricular fibrillation in mice caused by inhalation of chloroform leading to rapid cessation of breathing is determined by the method of Lawson (J. Pharmacol. Exp. Ther. 160, 22-23).
In this experimental procedure, the minimum toxic dose can also be determined at the same time. The test substance, dissolved in 0.9% strength sodium chloride solution, is administered intraperitoneally to female mice of 17-24 g body weight. The animals are kept individually in glass beakers, where they are observed for possible toxic symptoms. Ten minutes after administration of the test substance, the animals are transferred to covered 300 ml glass beakers containing a cottonwool swab soaked with about 20 ml of chloroform. As soon as breathing begins to stop, the heart is exposed and the ventricular rhythm and rate are observed visually. The percentage of animals protected from ventricular fibrillation by the dose administered is given.
in the test described above, the compounds of formula I display antiarrhythmic actions in a dose range from 0.1 to 100 mg/kg.
The Example numbers given for the compounds of formula I relate to the preparation Exaples below.

mice = conditions: mouse, in vivo
[2] = test system: isolated left auricle of female guinea pigs; test: Functional refractory period prolonging and contraction force reducing action, double-stimulation method of Govier; conditions: isolated atrium from guinea pigs; for EC (125%) / IC25: Cavia porcellus; for EC (125%): 0.3 h, 18 minutes after administration, read-out: FRP: concentration at which the functional refractory period is increased to 125%; for IC25: read-out: Force: concentration at which the contraction force is reduced to 75% of the starting value; for Force/FRP quotient of concentrations: indication of therapeutic range
From the text: The favourable relationship between the functional refractory period prolonging action (FRP) and the contraction force reducing action (force) of the compounds can also be shown on the isolated left auricle of female guinea pigs of 300-400 g body weight by the double-stimulation method of Govier [J. Pharmakol.

[3] = test system: disorders in cardiac rhythm induced by aconitine infusion; test: Inhibition of disorders in cardiac rhythm induced by aconitine infusion (method of Raschak); type: in vivo, rats; conditions: Rattus norvegicus, iv
Experimental: The compounds also show an inhibiting action on disorders in cardiac rhythm induced by aconitine infusion [extrasystoles (ES), ventricular tachycardia (VT) and ventricular fibrillation (VF)] in rats in the experimental method of Raschak (Arzneimittelforsch. 25 (1975) 639-641). Thus, for example, the minimum effective doses of 2-[3-(N,N-diethylamino)-2-hydroxypropylaminocarbonyl]-3-methoxy-1-phenylindole on intravenous administration 5 minutes before the start of aconitine infusion are as follows: […]

Acute toxicity = conditions: in vivo; for LD50: mouse
From the text: This gives a therapeutic range (=quotient LD50 .sbsb.mouse /EDmin) of 8-17.

| SMILES | % of protected animals ([1]; dose 100 mg/kg ip) | Minimum toxic dose (mice; ip) | Minimum toxic dose (mice; po) | other results |
| --- | --- | --- | --- | --- |
| CN(C)CCNC(=O)c1c(O)c2ccccc2n1-c1ccc(Cl)cc1 [Example 2, 2-[2-(N,N-Dimethylamino)-ethylaminocarbonyl]-3-hydroxy-1-(4'-chlorophenyl)-indole] | 100% | ≥ 100 mg/kg | ≥ 300 mg/kg |  |
| COc1c(C(=O)NCCN(C)C)n(-c2ccccc2)c2ccc(Br)cc12 [Example 30] |  | ≥ 300 mg/kg | 200 mg/kg | % of protected animals ([1]; dose 50 mg/kg ip): 33.3% |
| CCN(CC)CCCNC(=O)c1c(OC)c2ccccc2n1-c1ccccc1 [Example 20] |  | 300 mg/kg | 50 mg/kg | % of protected animals ([1]; dose 10 mg/kg ip): 100%; EC (125%) [2]: 0.66 µM; IC25 [2]: 3.57 µM; Force/FRP quotient of concentrations [2]: 5.4 |
| Cc1cccc(-n2c(C(=O)NCCN(C)C)c(O)c3ccccc32)c1C [Example 25] | 66.7% | ≥ 100 mg/kg | ≥ 300 mg/kg |  |
| CCN(CC)CC(O)CNC(=O)c1c(OC)c2ccccc2n1-c1ccccc1 (stereo not shown) [Example 1, 2-[3-(N,N-Diethylamino)-2-hydroxypropylaminocarbonyl]-3-methoxy-1-phenylindole] |  | 300 mg/kg | 100 mg/kg | % of protected animals ([1]; dose 25 mg/kg ip): 100%; minimal effective dose ([3]; read-out: Minimum effective inhibiting dose, extrasystoles): 2.15 µmol/kg; minimal effective dose ([3]; read-out: Minimum effective inhibiting dose, heart rate): > 12 µmol/kg; minimal effective dose ([3]; read-out: Minimum effective inhibiting dose, ventricular fibrillation): 4.64 µmol/kg; minimal effective dose ([3]; read-out: Minimum effective inhibiting dose, ventricular tachycardia): 2.15 µmol/kg; LD50 (Acute toxicity; ip, administered intraperitoneally): 164 µmol/kg; LD50 (Acute toxicity; iv, administered intravenously): 37.3 µmol/kg; selectivity ratio (Acute toxicity; LD50 mouse over minimum effective dose in aconitine test, read-out: therapeutic range (=quotient LD50 mouse/EDmin)): 8 to 17; EC (125%) [2]: 3.6 µM; IC25 [2]: 6.3 µM; Force/FRP quotient of concentrations [2]: 1.8 |
| CCN(CC)CCCCNC(=O)c1c(OC)c2ccccc2n1-c1ccccc1 [Example 22] |  | 300 mg/kg | 50 mg/kg | % of protected animals ([1]; dose 10 mg/kg ip): 66.7% |
| COc1c(C(=O)NCCN(C)C)n(-c2ccc(Cl)cc2)c2ccccc12 [Example 15] | 100% | ≥ 100 mg/kg | ≥ 300 mg/kg |  |
